Data: the supplement of paper PMC10307832

Each cell line was assayed with CC(C)(C)c1cc(NC(=O)Nc2ccc(-c3cn4c(n3)sc3cc(OCCN5CCOCC5)ccc34)cc2)no1 [Quizartinib] + CC(=O)c1c(C)c2cnc(Nc3ccc(N4CCNCC4)cn3)nc2n(C2CCCC2)c1=O [Palbociclib] (partner 0.5 µM) (assay: relative viability (nuclei count vs DMSO), 5 days (fraction); higher = more cells survive). Settings: first compound 0.001 µM.
Summary of the method: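 Relative viability equals treated-well nuclei counts divided by vehicle-well nuclei counts. Counts came from 4× images of lung cancer cell lines grown in 1536-well plates for 5 days after pin-tool dosing on the day after seeding. Dosing used one drug alone or a fixed anchor-drug dose plus five library-drug doses (not always all listed) in √10 steps, and values are medians of duplicate plates.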
Work on NCI-H1975 yielded a relative viability of 0.588. Cell Line NCI-H1944 has a relative viability of 0.345. With NCI-H2126 the relative viability was 0.359. EMC-BAC-2 showed a relative viability of 0.456. With SK-LU-1 the relative viability was 0.366. NCI-H2170 gave a relative viability of 0.385. For SW 900, the relative viability was 0.507. Work on NCI-H661 yielded a relative viability of 0.369. For NCI-H358, the relative viability was 0.131. In the case of CAL-12T, the relative viability was 0.362. Work on LK-2 yielded a relative viability of 0.734. In the case of HOP-62, the relative viability was 0.438. With PC-14 the relative viability was 0.485. With NCI-H1993 the relative viability was 0.673. NCI-H2405 gave a relative viability of 0.499. NCI-H3122 gave a relative viability of 0.176. Cell Line A-427 has a relative viability of 0.425. NCI-H2342 showed a relative viability of 0.482. LOU-NH91 gave a relative viability of 0.59. For NCI-H1666, the relative viability was 0.618. For NCI-H23, the relative viability was 0.425. NCI-H838 was tested, and the relative viability was 0.212. NCI-H322M showed a relative viability of 0.429. In the case of NCI-H1793, the relative viability was 0.331. With NCI-H441 the relative viability was 0.191. In the case of NCI-H727, the relative viability was 0.677. Cell Line SW 1573 has a relative viability of 0.367. 201T showed a relative viability of 0.322. Cell Line HCC-44 has a relative viability of 0.943. In the case of NCI-H1755, the relative viability was 0.418. In the case of NCI-H1650, the relative viability was 0.386. Work on COR-L23 yielded a relative viability of 0.236. In the case of NCI-H2085, the relative viability was 0.407.

Same assay, conditions: first compound 0.003162 µM
NCI-H1975 showed a relative viability of 0.605. NCI-H1944 was tested, and the relative viability was 0.306. For NCI-H2126, the relative viability was 0.347. EMC-BAC-2 showed a relative viability of 0.483. SK-LU-1 showed a relative viability of 0.361. For NCI-H2170, the relative viability was 0.365. In the case of SW 900, the relative viability was 0.547. Cell Line NCI-H661 has a relative viability of 0.348. For NCI-H358, the relative viability was 0.117. Work on CAL-12T yielded a relative viability of 0.404. LK-2 gave a relative viability of 0.621. HOP-62 showed a relative viability of 0.357. For PC-14, the relative viability was 0.457. Work on NCI-H1993 yielded a relative viability of 0.58. NCI-H2405 gave a relative viability of 0.519. NCI-H3122 gave a relative viability of 0.184. For A-427, the relative viability was 0.48. With NCI-H2342 the relative viability was 0.538. LOU-NH91 gave a relative viability of 0.506. NCI-H1666 was tested, and the relative viability was 0.66. NCI-H23 was tested, and the relative viability was 0.543. For NCI-H838, the relative viability was 0.244. In the case of NCI-H322M, the relative viability was 0.477. With NCI-H1793 the relative viability was 0.277. NCI-H441 gave a relative viability of 0.222. In the case of NCI-H727, the relative viability was 0.684. SW 1573 showed a relative viability of 0.367. 201T gave a relative viability of 0.371. HCC-44 showed a relative viability of 1.04. Work on NCI-H1755 yielded a relative viability of 0.451. NCI-H1650 was tested, and the relative viability was 0.329. Work on ChaGo-K-1 yielded a relative viability of 0.922. COR-L23 gave a relative viability of 0.269. Work on NCI-H2085 yielded a relative viability of 0.486. NCI-H460 was tested, and the relative viability was 0.136.

Same assay, conditions: first compound 0.01 µM
Cell Line NCI-H1975 has a relative viability of 0.599. Cell Line NCI-H1944 has a relative viability of 0.293. Work on NCI-H2126 yielded a relative viability of 0.347. In the case of EMC-BAC-2, the relative viability was 0.547. SK-LU-1 was tested, and the relative viability was 0.443. In the case of NCI-H2170, the relative viability was 0.392. SW 900 gave a relative viability of 0.63. With NCI-H661 the relative viability was 0.391. NCI-H358 was tested, and the relative viability was 0.134. Work on CAL-12T yielded a relative viability of 0.607. In the case of LK-2, the relative viability was 0.853. In the case of HOP-62, the relative viability was 0.526. PC-14 showed a relative viability of 0.488. Cell Line NCI-H1993 has a relative viability of 0.67. NCI-H2405 showed a relative viability of 0.584. In the case of NCI-H3122, the relative viability was 0.193. Work on A-427 yielded a relative viability of 0.523. For NCI-H2342, the relative viability was 0.483. LOU-NH91 gave a relative viability of 0.547. Work on NCI-H1666 yielded a relative viability of 0.683. Work on NCI-H23 yielded a relative viability of 0.548. NCI-H838 gave a relative viability of 0.205. NCI-H322M showed a relative viability of 0.49. In the case of NCI-H1793, the relative viability was 0.33. For NCI-H441, the relative viability was 0.169. Work on NCI-H727 yielded a relative viability of 0.625. Cell Line SW 1573 has a relative viability of 0.493. 201T was tested, and the relative viability was 0.361. With HCC-44 the relative viability was 0.997. For NCI-H1755, the relative viability was 0.471. NCI-H1650 was tested, and the relative viability was 0.345. ChaGo-K-1 was tested, and the relative viability was 0.918. With COR-L23 the relative viability was 0.34. NCI-H2085 was tested, and the relative viability was 0.444. Cell Line NCI-H460 has a relative viability of 0.188.

Same assay, conditions: first compound 0.03162 µM
NCI-H1975 was tested, and the relative viability was 0.552. For NCI-H1944, the relative viability was 0.35. Cell Line NCI-H2126 has a relative viability of 0.339. For SK-LU-1, the relative viability was 0.381. For NCI-H2170, the relative viability was 0.367. Cell Line SW 900 has a relative viability of 0.541. NCI-H661 showed a relative viability of 0.384. For CAL-12T, the relative viability was 0.348. In the case of LK-2, the relative viability was 0.599. HOP-62 was tested, and the relative viability was 0.459. With NCI-H1993 the relative viability was 0.633. In the case of NCI-H2405, the relative viability was 0.528. NCI-H3122 showed a relative viability of 0.162. A-427 was tested, and the relative viability was 0.485. NCI-H2342 showed a relative viability of 0.615. LOU-NH91 showed a relative viability of 0.577. NCI-H1666 gave a relative viability of 0.638. For NCI-H23, the relative viability was 0.453. For NCI-H838, the relative viability was 0.217. With NCI-H322M the relative viability was 0.512. For NCI-H1793, the relative viability was 0.329. Cell Line NCI-H441 has a relative viability of 0.191. Work on NCI-H727 yielded a relative viability of 0.673. In the case of 201T, the relative viability was 0.401. Cell Line HCC-44 has a relative viability of 0.921. NCI-H1755 showed a relative viability of 0.446. ChaGo-K-1 showed a relative viability of 0.949. In the case of COR-L23, the relative viability was 0.244. Cell Line NCI-H2085 has a relative viability of 0.453.

Same assay, conditions: first compound 0.1 µM
Work on NCI-H1975 yielded a relative viability of 0.538. NCI-H1944 showed a relative viability of 0.294. Cell Line NCI-H2126 has a relative viability of 0.346. In the case of EMC-BAC-2, the relative viability was 0.544. With SK-LU-1 the relative viability was 0.388. NCI-H2170 was tested, and the relative viability was 0.358. For SW 900, the relative viability was 0.558. With NCI-H661 the relative viability was 0.339. Work on NCI-H358 yielded a relative viability of 0.138. CAL-12T gave a relative viability of 0.0629. LK-2 gave a relative viability of 0.69. HOP-62 showed a relative viability of 0.349. Work on PC-14 yielded a relative viability of 0.477. In the case of NCI-H1993, the relative viability was 0.825. For NCI-H2405, the relative viability was 0.556. Cell Line NCI-H3122 has a relative viability of 0.235. A-427 was tested, and the relative viability was 0.505. Work on NCI-H2342 yielded a relative viability of 0.462. Cell Line LOU-NH91 has a relative viability of 0.567. NCI-H1666 gave a relative viability of 0.637. Work on NCI-H23 yielded a relative viability of 0.396. NCI-H838 gave a relative viability of 0.179. Cell Line NCI-H322M has a relative viability of 0.527. In the case of NCI-H1793, the relative viability was 0.34. Cell Line NCI-H441 has a relative viability of 0.219. With NCI-H727 the relative viability was 0.765.
